The values below come from EP0572271B1, “Acyl lactylates as antimicrobial actives” (UNILEVER PLC, priority 1992, dated 1993).

One assay relates to Pseudomonas cepacia. Briefly: Challenge test with repeated bacterial inoculation of preserved compositions. Format: cell-based. How it is done: (§1) This test involved incubating under standard conditions test compositions which have been inoculated with a selected bacterium, yeast or a mixture of moulds. […] Accordingly, the higher the number of "challenges", the better is the preservative substance in preventing or at least delaying microbial spoilage.
(§2) The microorganisms selected for this test were: • i) Pseudomonas cepacia - a gram-negative bacterium, • ii ) Aspergillus niger & Penicillium notatum, - a mixture of moulds.
For the bacterium the method of testing was as follows: • i) Introduce aseptically 99ml of test composition into a 250ml flask and add 1ml of inoculum of one of the test organisms (see above), to provide a dilution of 10^6 cells/ml in the composition. • ii) mix and incubate at 28°C for 24 hours. • iii) remove 1ml of incubated composition from the flask and add to it as diluent 9ml of an aqueous solution containing 0.1% by weight peptone and 2% by weight Tween 80, and mix thoroughly. • iv) place 1ml of diluted sample into a petri dish and add warm, molten agar (40°C) and mix to distribute culture uniformly and allow to set. • v) incubate plates for 3 days at 28°C and then count colonies and note log reduction of count (due to the presence of the preservative in the original culture composition).
The inoculation of the organisms originally introduced into each composition is then repeated at 24 hour intervals, following removal of the first total viable count sample, the plating out and counting procedure being repeated on each occasion. The test is terminated when the samples show a contamination level greater than 10^2 counts per ml on 2 consecutive days. This point is regarded as the failure point for the composition under test.
The greater the number of inoculations of contaminant organisms before this level of contamination is established in the composition, the better the preservative system.

Assay [1] concerns Aspergillus niger & Penicillium notatum. The assay can be described thus: Mould challenge test: mould spore suspension inoculated into preserved compositions. Type of assay: cell-based. Conditions: Example 2: oil-in-water emulsion, pH 5.5, material usually 1.0 wt%; for Mould challenge 1%: 1% by volume spore suspension; for Mould challenge 10%: 10% by volume spore suspension. The procedure:
as §1, §2
The above procedure applies to the inoculation of the bacterium. For testing with the mixed culture of moulds this procedure was varied slightly, as follows:
Two samples of each test composition (9.9ml and 9ml) were transferred to sterile flasks and 0.1ml or 1ml, (i.e. 1% or 10% by volume) of a mould spore suspension (approximately 10^8 spores per ml) was introduced into the respective samples and thoroughly mixed. The inoculated samples were incubated at 28°C for up to 28 days with 1ml samples being aseptically removed for the total viable count as outlines above using Sabourand's dextrose agar after 1, 7, and 28 days.
A composition is classed as "low risk" if mould spores are eliminated in 1 to 2 days. "Medium risk" compositions take 7 to 14 days to eliminate the spores and "high risk" compositions still have surviving mould spores after 14 days incubation.

Assay [2] has as its system several types of bacteria. As to conditions: statement in words on prior art US patent 3,275,503; cited from earlier work.
Another assay deals with aspergillus niger. Conditions: statement in words on prior art US patent 3,275,503; cited from earlier work.
[3] abbreviates: Example 2: oil-in-water emulsion, pH 5.5, material usually 1.0 wt%.
The mark [4] stands for this setting: Example 3: shampoo formulation, pH 6.0, material added 1 wt%.

A value given as a limit tells only on which side of the number the result lay.

Take `CC(C)=CCCC(C)=CCCC(C)=CCO` [Farnesol]: the “No of inoculations to failure (Bacteria)” value in the assay on Pseudomonas cepacia (setting [3]) came to 1. In addition, in assay [1], the “Mould challenge 1%” value is on record as “++++” and the “Mould challenge 10%” value was “++++”.
Turning to `CCCCCC(=O)OC(C)C(=O)O` (stereo not drawn) [Hexanoyl lactylate], the “No of inoculations to failure (Bacteria)” value with Pseudomonas cepacia (setting [3]) is on record as greater than 21. In the assay with Pseudomonas cepacia (setting [4]), the “No of inoculations to failure (Bacteria)” value is greater than 21. In addition, in assay [1], the “Mould challenge 1%” value was “+” and the “Mould challenge 10%” value was “+”.
For `CCCCCCCCCCCC(=O)O` [Lauric acid], the “No of inoculations to failure (Bacteria)” value in the assay on Pseudomonas cepacia (setting [3]) and in the assay on Pseudomonas cepacia (setting [4]) was 1 throughout. Further, the “Mould challenge 1%” value in assay [1] was “++++”. For the same compound, in assay [1], the “Mould challenge 10%” value was “++++”.
As for `CCCCCCCCCCCC(=O)OCC(O)CO` (stereo not drawn) [Monolaurin], in the assay with Pseudomonas cepacia (setting [3]), the “No of inoculations to failure (Bacteria)” value came to 1. The “No of inoculations to failure (Bacteria)” value in the assay on Pseudomonas cepacia (setting [4]) is given as 1. For the same compound, in assay [1], the “Mould challenge 1%” value was “++++” and the “Mould challenge 10%” value is “++++”.
For the compound `CCCCCCCCCC(=O)OC(C)C(=O)OC(C)C(=O)[O-].CCCCCCCCCC(=O)OC(C)C(=O)OC(C)C(=O)[O-].[Ca+2]` (stereo not drawn) [calcium capryl-2 lactylate], the “effectiveness against several types of bacteria” value in assay [2] is on record as “very effective”. In addition, in the assay on aspergillus niger, the “efficacy to inhibit the growth of moulds, like aspergillus niger” value is reported as “leaves much to be desired”.
In the case of Octanoyl lactylate, the “No of inoculations to failure (Bacteria)” value with Pseudomonas cepacia (setting [3]) came out at 20. Moreover, the “No of inoculations to failure (Bacteria)” value with Pseudomonas cepacia (setting [4]) stood at 2. Besides, in assay [1], the “Mould challenge 1%” value is given as “+” and the “Mould challenge 10%” value is on record as “++++”.
